According to PubChem BioAssay (NCI):
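Five concentrations, 48 hours, 96-well plates. Here, GI50 denotes the concentration required for 50% inhibition of growth. TGI marks complete inhibition of growth.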

How the values were obtained:
Assay in all cases: growth of human tumour cells (NCI), 48 h
UACC-257 melanoma = test system: UACC-257 melanoma
ACHN renal = test system: ACHN renal
SF-539 CNS = test system: SF-539 CNS
OVCAR-8 ovarian = test system: OVCAR-8 ovarian
OVCAR-5 ovarian = test system: OVCAR-5 ovarian
SR leukemia = test system: SR leukemia
U251 CNS = test system: U251 CNS
RXF 393 renal = test system: RXF 393 renal
SF-268 CNS = test system: SF-268 CNS
IGROV1 ovarian = test system: IGROV1 ovarian
MCF7 breast = test system: MCF7 breast
CCRF-CEM leukemia = test system: CCRF-CEM leukemia
NCI-H226 lung = test system: NCI-H226 lung
SNB-19 CNS = test system: SNB-19 CNS
SK-MEL-2 melanoma = test system: SK-MEL-2 melanoma
PC-3 prostate = test system: PC-3 prostate
HOP-92 NSCLC = test system: HOP-92 NSCLC
OVCAR-4 ovarian = test system: OVCAR-4 ovarian
NCI-H23 lung = test system: NCI-H23 lung
COLO 205 colon = test system: COLO 205 colon
UACC-62 melanoma = test system: UACC-62 melanoma
MDA-MB-231 breast = test system: MDA-MB-231 breast
NCI-H460 lung = test system: NCI-H460 lung
LOX IMVI melanoma = test system: LOX IMVI melanoma
SK-MEL-28 melanoma = test system: SK-MEL-28 melanoma
HCT-15 colon = test system: HCT-15 colon
HCT-116 colon = test system: HCT-116 colon
SF-295 CNS = test system: SF-295 CNS
T-47D breast = test system: T-47D breast
MOLT-4 leukemia = test system: MOLT-4 leukemia
MALME-3M melanoma = test system: MALME-3M melanoma
DU-145 prostate = test system: DU-145 prostate
SK-OV-3 ovarian = test system: SK-OV-3 ovarian
CAKI-1 renal = test system: CAKI-1 renal
RPMI-8226 leukemia = test system: RPMI-8226 leukemia
OVCAR-3 ovarian = test system: OVCAR-3 ovarian
MDA-MB-435 = test system: MDA-MB-435
TK-10 renal = test system: TK-10 renal
BT-549 breast = test system: BT-549 breast
SW-620 colon = test system: SW-620 colon
HOP-62 NSCLC = test system: HOP-62 NSCLC
786-0 renal = test system: 786-0 renal
HCC-2998 colon = test system: HCC-2998 colon
M14 melanoma = test system: M14 melanoma
K-562 leukemia = test system: K-562 leukemia
SNB-75 CNS = test system: SNB-75 CNS
HT29 colon = test system: HT29 colon
SN12C renal = test system: SN12C renal
A498 renal = test system: A498 renal
NCI/ADR-RES ovarian = test system: NCI/ADR-RES ovarian
UO-31 renal = test system: UO-31 renal
NCI-H522 lung = test system: NCI-H522 lung
SK-MEL-5 melanoma = test system: SK-MEL-5 melanoma
KM12 colon = test system: KM12 colon
A549 NSCLC = test system: A549 NSCLC
HS 578T breast = test system: HS 578T breast
HL-60(TB) leukemia = test system: HL-60(TB) leukemia

Cn1cc(C2=C(c3cccc(Br)c3)C(=O)NC2=O)c2ccccc21
GI50 (UACC-257 melanoma): > 19.8 µM
TGI (UACC-257 melanoma): > 25 µM
GI50 (ACHN renal): 14.5 µM
TGI (ACHN renal): > 25 µM
GI50 (SF-539 CNS): 12.5 µM
TGI (SF-539 CNS): > 25 µM
GI50 (OVCAR-8 ovarian): 12.6 µM
TGI (OVCAR-8 ovarian): > 25 µM
GI50 (OVCAR-5 ovarian): > 25 µM
TGI (OVCAR-5 ovarian): > 25 µM
GI50 (SR leukemia): 7.33 µM
TGI (SR leukemia): > 25 µM
GI50 (U251 CNS): 12.3 µM
TGI (U251 CNS): > 25 µM
GI50 (RXF 393 renal): 8.3 µM
TGI (RXF 393 renal): > 25 µM
GI50 (SF-268 CNS): 15.5 µM
TGI (SF-268 CNS): > 25 µM
GI50 (IGROV1 ovarian): 11 µM
TGI (IGROV1 ovarian): > 25 µM
GI50 (MCF7 breast): 6.08 µM
TGI (MCF7 breast): > 25 µM
GI50 (CCRF-CEM leukemia): 12.3 µM
TGI (CCRF-CEM leukemia): > 25 µM
GI50 (NCI-H226 lung): 10.4 µM
TGI (NCI-H226 lung): > 25 µM
GI50 (SNB-19 CNS): > 25 µM
TGI (SNB-19 CNS): > 25 µM
GI50 (SK-MEL-2 melanoma): 11.6 µM
TGI (SK-MEL-2 melanoma): > 21.6 µM
GI50 (PC-3 prostate): 8.53 µM
TGI (PC-3 prostate): > 25 µM
GI50 (HOP-92 NSCLC): 8.62 µM
TGI (HOP-92 NSCLC): > 25 µM
GI50 (OVCAR-4 ovarian): 12.6 µM
TGI (OVCAR-4 ovarian): > 25 µM
GI50 (NCI-H23 lung): 12.5 µM
TGI (NCI-H23 lung): > 25 µM
GI50 (COLO 205 colon): 13.9 µM
TGI (COLO 205 colon): > 25 µM
GI50 (UACC-62 melanoma): 11.3 µM
TGI (UACC-62 melanoma): > 25 µM
GI50 (MDA-MB-231 breast): 18.7 µM
TGI (MDA-MB-231 breast): > 25 µM
GI50 (NCI-H460 lung): 16.9 µM
TGI (NCI-H460 lung): > 25 µM
GI50 (LOX IMVI melanoma): 12 µM
TGI (LOX IMVI melanoma): > 25 µM
GI50 (SK-MEL-28 melanoma): > 22.9 µM
TGI (SK-MEL-28 melanoma): > 25 µM
GI50 (HCT-15 colon): 9.24 µM
TGI (HCT-15 colon): > 25 µM
GI50 (HCT-116 colon): 7.62 µM
TGI (HCT-116 colon): > 25 µM
GI50 (SF-295 CNS): 12.9 µM
TGI (SF-295 CNS): > 25 µM
GI50 (T-47D breast): 8.11 µM
TGI (T-47D breast): > 25 µM
GI50 (MOLT-4 leukemia): 9.91 µM
TGI (MOLT-4 leukemia): > 25 µM
GI50 (MALME-3M melanoma): > 19.2 µM
TGI (MALME-3M melanoma): > 25 µM
GI50 (DU-145 prostate): > 25 µM
TGI (DU-145 prostate): > 25 µM
GI50 (SK-OV-3 ovarian): 10.3 µM
TGI (SK-OV-3 ovarian): > 25 µM
GI50 (CAKI-1 renal): 9.63 µM
TGI (CAKI-1 renal): > 25 µM
GI50 (RPMI-8226 leukemia): 20.1 µM
TGI (RPMI-8226 leukemia): > 25 µM
GI50 (OVCAR-3 ovarian): 9.51 µM
TGI (OVCAR-3 ovarian): > 25 µM
GI50 (MDA-MB-435): 5.82 µM
TGI (MDA-MB-435): > 25 µM
GI50 (TK-10 renal): > 18.6 µM
TGI (TK-10 renal): > 25 µM
GI50 (BT-549 breast): 15.1 µM
TGI (BT-549 breast): > 25 µM
GI50 (SW-620 colon): 9.44 µM
TGI (SW-620 colon): > 25 µM
GI50 (HOP-62 NSCLC): 18.3 µM
TGI (HOP-62 NSCLC): > 25 µM
GI50 (786-0 renal): 12.1 µM
TGI (786-0 renal): > 25 µM
GI50 (HCC-2998 colon): > 16 µM
TGI (HCC-2998 colon): > 25 µM
GI50 (M14 melanoma): 17.1 µM
TGI (M14 melanoma): > 25 µM
GI50 (K-562 leukemia): 8.65 µM
TGI (K-562 leukemia): > 25 µM
GI50 (SNB-75 CNS): 1.18 µM
TGI (SNB-75 CNS): > 25 µM
GI50 (HT29 colon): > 15 µM
TGI (HT29 colon): > 25 µM
GI50 (SN12C renal): 13.2 µM
TGI (SN12C renal): > 25 µM
GI50 (A498 renal): 4.51 µM
TGI (A498 renal): 17.9 µM
GI50 (NCI/ADR-RES ovarian): 8.85 µM
TGI (NCI/ADR-RES ovarian): > 25 µM
GI50 (UO-31 renal): 6.42 µM
TGI (UO-31 renal): > 25 µM
GI50 (NCI-H522 lung): 10.4 µM
TGI (NCI-H522 lung): > 25 µM
GI50 (SK-MEL-5 melanoma): 6.23 µM
TGI (SK-MEL-5 melanoma): 22.3 µM
GI50 (KM12 colon): 8.43 µM
TGI (KM12 colon): > 25 µM
GI50 (A549 NSCLC): 11.1 µM
TGI (A549 NSCLC): > 25 µM
GI50 (HS 578T breast): 3.92 µM
TGI (HS 578T breast): > 25 µM
GI50 (HL-60(TB) leukemia): 10.2 µM
TGI (HL-60(TB) leukemia): > 25 µM
